How the values were obtained:
[1] = In vitro photo-release and hydrolytic release of dicamba in an aqueous medium (Example 36); type: physicochemical; conditions: 0.01 mM (0.005 mM for diesters)
Description: This Example describes the determination of photo-lability and hydrolytic lability of dicamba esters in an aqueous medium. 1 mM solutions of the esters were prepared in acetonitrile (or […] solutions of dicamba diesters). The solutions were then diluted with deionized water to a concentration of 0.01 mM (or 0.005 mM for diesters). The solutions were then transferred to quartz tubes and amber bottles and held in a growth chamber by the procedure of Example 26. A 14-hour day was generally used at a constant temperature of 35° C. Hydrolytic activity was assessed by measuring the increase in dicamba concentration after day zero in the amber (dark) bottles. […] Photolysis manifested itself as increased conversion in the quartz tubes compared to the dark control.
This Example provides the results of an aqueous lability test following the protocol of Example 35 for several dicamba esters which convert to dicamba primarily by hydrolysis. As shown by the results in the table below, conversion of the dark controls generally equaled or exceeded conversion in the photolysis solutions.

[2] = Solubility of the esters (statements of the description); type: physicochemical; conditions: qualitative
[3] = Photolysis / cleavage of the esters to dicamba (statements of the description); type: physicochemical; conditions: qualitative
Source text: The efficacy of the photolabile esters can be assayed in vitro, or in greenhouse or field experiments. A useful in vitro assay for post-emergent activity involves photolysis of a dilute solution of the esters using simulated sunlight. This is conveniently achieved by photolysis of a solution of the ester in an organic solvent which is miscible with water and to which some water has been added. As described in the Examples, photolysis in acetonitrile or tetrahydrofuran containing 10% water by weight is effective. Low concentrations of the ester should be used so that the entire volume is exposed to sunlight. Since the maximum extinction coefficient of the typical esters above 220 nm is in the range of 1000-10,000 M^−1 cm^−1, a concentration of 0.1 mM is effective. Photolysis in a quartz tube exposed to simulated or actual sunlight is a typical protocol.

velvetleaf [4] = assay: Greenhouse post-emergent control of velvetleaf by emulsifiable concentrates (Example 37); type: in vivo; conditions: Abutilon theophrasti, post-emergence, 504 h, greenhouse, Example 37; for pest or weed control at 140 g/ha: read-out: % Control of velvetleaf, 140 g/ha; for pest or weed control at 280 g/ha: read-out: % Control of velvetleaf, 280 g/ha; for pest or weed control at 420 g/ha: read-out: % Control of velvetleaf, 420 g/ha; for pest or weed control at 560 g/ha: read-out: % Control of velvetleaf, 560 g/ha
Description: (§1) The efficacy of some photo-labile ester formulations from Example 28 for post-emergent control of velvetleaf was tested in the greenhouse. All formulations were tested at rates of 140, 280, 420, and 560 g dicamba equivalent per hectare rates and compared to the diglycolamine salt of dicamba (CLARITY®) at the same rates and untreated control plants. The velvetleaf plants were 10-15 cm in height at the time of spraying. Percent control was evaluated three weeks after treatment.
The methodology of Example 29 was used to evaluate the efficacy of several esters of dicamba which convert to dicamba by hydrolysis for post-emergent control of velvetleaf as emulsifiable concentrate formulations.

broadleaf weeds = assay: Control of broadleaf weeds by ester concentrates (statements of the description); type: in vivo; conditions: emulsifiable and suspension concentrates; Sesbania macrocarpa, morning glory, velvetleaf, Palmer amaranth, fat hen, sicklepod
velvetleaf [5] = assay: Field testing of emulsifiable concentrates, post-emergent control (Example 40); type: in vivo
Description: (§2) Three dicamba esters, 30a, 32a, and 36a, were formulated as emulsifiable concentrates for field testing. All surfactants are commercial materials from Stepan.
(§3) The formulations were tested in the field. Locations and timing were identical for the three esters, but differed slightly for the diglycolamine control. The esters were compared to the diglycolamine salt of dicamba (CLARITY™) for post-emergent control of three broadleaf weeds: velvetleaf, morning glory, and hemp sesbania. Rates of 280 and 560 g dicamba acid equivalent per hectare were used.

morning glory = assay: as above; type: in vivo
Description: as §2, §3

hemp sesbania = assay: as above; type: in vivo
Description: as §2, §3

velvetleaf [6] = assay: Greenhouse post-emergent control of velvetleaf by emulsifiable concentrates (Example 30); type: in vivo
Description: as §1
The methodology of Example 29 was used to evaluate the efficacy of several photo-labile esters of dicamba for post-emergent control of velvetleaf as emulsifiable concentrate formulations described in Example 28.

Euphorbia species = assay: Field testing for post-emergent activity in the Southern Hemisphere (Example 39); type: in vivo; conditions: 9 as suspension concentrate, other esters as emulsifiable concentrates
Description: The primary weeds were Euphorbia species. Ester 9 was tested as a suspension concentrate using the formulation of Example 33 The other esters were tested as emulsifiable concentrates having the formulations shown in the table below. Akzo Nobel SPONTO EC 334 and SPONTO EC 336 along with SURFONIC CO-54 and […] (Huntsman) were used as emulsifiers and Aromatic 200 (A 200; Exxon) was used as the solvent. […] The diglycolamine salt of dicamba (CLARITYTM) was used as a comparator.

[7] = 280 g dicamba acid equivalent per hectare
[8] = 560 g dicamba acid equivalent per hectare

| Conversion to Dicamba, Dark, Day 0 ([1]; amber (dark) bottle) | Conversion to Dicamba, Dark, Day 1 ([1]; amber (dark) bottle) | Conversion to Dicamba, Dark, Day 2 ([1]; amber (dark) bottle) | Conversion to Dicamba, Dark, Day 3 ([1]; amber (dark) bottle) | Conversion to Dicamba, Dark, Day 4 ([1]; amber (dark) bottle) | Conversion to Dicamba, Dark, Day 7 ([1]; amber (dark) bottle) | Conversion to Dicamba, Light, Day 0 ([1]; quartz tube) | Conversion to Dicamba, Light, Day 1 ([1]; quartz tube) | Conversion to Dicamba, Light, Day 2 ([1]; quartz tube) | Conversion to Dicamba, Light, Day 3 ([1]; quartz tube) | Conversion to Dicamba, Light, Day 4 ([1]; quartz tube) | Conversion to Dicamba, Light, Day 7 ([1]; quartz tube) | solubility, in words [2] | SMILES | photolysis / photo-release of dicamba, in words [3] | further results |
| --- | --- | --- | --- | --- | --- | --- | --- | --- | --- | --- | --- | --- | --- | --- | --- |
| – | – | – | – | – | – | – | – | – | – | – | – | significantly less soluble than 1a | COc1cc(COC(=O)c2c(Cl)ccc(Cl)c2OC)c([N+](=O)[O-])cc1OC [Ester 1b, 6-nitroveratryl ester of dicamba] | – | – |
| – | – | – | – | – | – | – | – | – | – | – | – | – | COc1c(Cl)ccc(Cl)c1C(=O)Oc1c(C)cc(C)cc1C(C)(C)C [Ester 21] | undergo photo-release of dicamba in vitro | – |
| – | – | – | – | – | – | – | – | – | – | – | – | highly insoluble | COc1c(Cl)ccc(Cl)c1C(=O)Oc1nnc(OC(=O)c2c(Cl)ccc(Cl)c2OC)c2ccccc12 [Ester 18, Phthalhydrazide Diester of Dicamba] | – | cleavage to form dicamba, in words [3]: undergo efficient cleavage to form dicamba |
| 20% | 59% | 61% | 60% | 60% | 65% | 20% | 57% | 60% | 58% | 59% | 63% | – | COc1c(Cl)ccc(Cl)c1C(=O)Oc1nc(C(C)(C)C)cc(C(C)(C)C)c1C#N [Ester 36a] | – | Conversion to Dicamba, Dark, Day 21 ([1]; amber (dark) bottle): 66%; Conversion to Dicamba, Light, Day 21 ([1]; quartz tube): 65%; pest or weed control at 140 g/ha (velvetleaf [4]): 15.8%; pest or weed control at 280 g/ha (velvetleaf [4]): 26.7%; pest or weed control at 420 g/ha (velvetleaf [4]): 32.5%; pest or weed control at 560 g/ha (velvetleaf [4]): 66.7%; control of a number of broadleaf weeds in field testing, in words (broadleaf weeds): proven effective; % control 19 days after treatment, 280 g/ha, Velvetleaf (velvetleaf [5]; [7]): 72 ± 25%; % control 19 days after treatment, 560 g/ha, Velvetleaf (velvetleaf [5]; [8]): 84 ± 26%; % control 19 days after treatment, 280 g/ha, Morning glory (morning glory; [7]): 83 ± 4%; % control 19 days after treatment, 560 g/ha, Morning glory (morning glory; [8]): 93 ± 5%; % control 19 days after treatment, 280 g/ha, Hemp sesbania (hemp sesbania; [7]): 82 ± 10%; % control 19 days after treatment, 560 g/ha, Hemp sesbania (hemp sesbania; [8]): 98 ± 2% |
| – | – | – | – | – | – | – | – | – | – | – | – | – | COc1c(Cl)ccc(Cl)c1C(=O)OCCOCc1ccccc1[N+](=O)[O-] [Ester 4, 2-(2-Nitrobenzoxy)Ethanol Ester of Dicamba] | the rate of photolysis decreases | % Control of velvetleaf, 140 g/ha (velvetleaf [6]): 32%; % Control of velvetleaf, 280 g/ha (velvetleaf [6]): 52%; % Control of velvetleaf, 420 g/ha (velvetleaf [6]): 50%; % Control of velvetleaf, 560 g/ha (velvetleaf [6]): 51% |
| 6% | 16% | 26% | 35% | 41% | 49% | 6% | 18% | 26% | 33% | 36% | 42% | readily soluble in organic solvents | COc1c(Cl)ccc(Cl)c1C(=O)Oc1ccc(OC(=O)c2c(Cl)ccc(Cl)c2OC)nn1 [Ester 17, Maleic Hydrazide Diester of Dicamba] | – | Conversion to Dicamba, Dark, Day 14 ([1]; amber (dark) bottle): 60%; Conversion to Dicamba, Light, Day 14 ([1]; quartz tube): 53%; % control, 0.25 lb/ac (0.28 kg/hectare) (Euphorbia species; 0.25 lb dicamba a.e. per acre): 41%; % control, 0.50 lb/ac (0.56 kg/hectare) (Euphorbia species; 0.50 lb dicamba a.e. per acre): 53%; cleavage to form dicamba, in words [3]: undergo efficient cleavage to form dicamba; pest or weed control at 140 g/ha (velvetleaf [4]): 23.3%; pest or weed control at 280 g/ha (velvetleaf [4]): 41.7%; pest or weed control at 420 g/ha (velvetleaf [4]): 75%; pest or weed control at 560 g/ha (velvetleaf [4]): 73.3%; control of a number of broadleaf weeds in field testing, in words (broadleaf weeds): proven effective |
| – | – | – | – | – | – | – | – | – | – | – | – | – | COc1c(Cl)ccc(Cl)c1C(=O)OCc1cccc([N+](=O)[O-])c1 [Ester 1c, 3-nitrobenzyl ester of dicamba] | slower and less efficient photolysis than the 2-nitrobenzyl ester | – |
| – | – | – | – | – | – | – | – | – | – | – | – | – | COc1c(Cl)ccc(Cl)c1C(=O)OCCOc1ccccc1[N+](=O)[O-] [Ester 3] | the rate of photolysis decreases | % Control of velvetleaf, 140 g/ha (velvetleaf [6]): 36%; % Control of velvetleaf, 280 g/ha (velvetleaf [6]): 57%; % Control of velvetleaf, 420 g/ha (velvetleaf [6]): 40%; % Control of velvetleaf, 560 g/ha (velvetleaf [6]): 43% |

| SMILES | Conversion to Dicamba, Dark, Day 0 ([1]; amber (dark) bottle) | Conversion to Dicamba, Dark, Day 1 ([1]; amber (dark) bottle) | Conversion to Dicamba, Dark, Day 2 ([1]; amber (dark) bottle) | Conversion to Dicamba, Dark, Day 3 ([1]; amber (dark) bottle) | Conversion to Dicamba, Dark, Day 4 ([1]; amber (dark) bottle) | Conversion to Dicamba, Dark, Day 7 ([1]; amber (dark) bottle) | Conversion to Dicamba, Light, Day 0 ([1]; quartz tube) | Conversion to Dicamba, Light, Day 1 ([1]; quartz tube) | Conversion to Dicamba, Light, Day 2 ([1]; quartz tube) | Conversion to Dicamba, Light, Day 3 ([1]; quartz tube) | Conversion to Dicamba, Light, Day 4 ([1]; quartz tube) | Conversion to Dicamba, Light, Day 7 ([1]; quartz tube) | solubility, in words [2] | photolysis / photo-release of dicamba, in words [3] | further results |
| --- | --- | --- | --- | --- | --- | --- | --- | --- | --- | --- | --- | --- | --- | --- | --- |
| COc1c(Cl)ccc(Cl)c1C(=O)Oc1ccc(=O)n(CCC#N)n1 [Ester 34a] | 3% | 9% | 14% | 18% | 23% | 38% | 3% | 10% | 14% | 16% | 20% | 29% | insoluble solid | – | Conversion to Dicamba, Dark, Day 14 ([1]; amber (dark) bottle): 56%; Conversion to Dicamba, Dark, Day 21 ([1]; amber (dark) bottle): 71%; Conversion to Dicamba, Dark, Day 28 ([1]; amber (dark) bottle, Day 28): 87%; Conversion to Dicamba, Light, Day 14 ([1]; quartz tube): 48%; Conversion to Dicamba, Light, Day 21 ([1]; quartz tube): 60%; Conversion to Dicamba, Light, Day 28 ([1]; quartz tube, Day 28): 71% |
